Test results published in EP0481320A1, “Novel cyclobutane derivatives” (NIPPON KAYAKU KABUSHIKI KAISHA, priority 1990, dated 1992).

Test system: herpes simplex 1 virus (HSV-1)
Assay: Plaque reduction test of antiviral activity in Vero cells
Assay type: cell-based
Conditions: Vero cells infected with 100-150 PFU; agar overlay with test compound; 37°C for 72 hours; plaque count
Experimental: Antiviral activity against herpes simplex 1 virus (HSV-1), which is a DNA virus, was tested by the following method. Vero cells (originating from kidney cells of African Green Monkey) spread in a monolayer onto 6-wells multiplate were infected with 100-150 PFU (Plaque Forming Units) of the virus. After a 1-hour adsorption period at 37°C, an agar medium (Eagle's minimum essential medium containing 1.5% agar) containing respective concentrations of the test compound (obtained in Example 4) was overlaid thereonto, and cultured in a 5% (V/V) carbon dioxide incubator at 37°C for 72 hours. The number of plaques formed was counted, from which the 50% inhibition concentration (IC₅₀) was determined.

## CC(O)C1C(CO)CC1n1cnc2c(=O)[nH]c(N)nc21 (single isomer, unassigned) [4-2, 9-[(1β,2α,3β)-2-(1-hydroxyethyl)-3-hydroxymethyl-1-cyclobutyl]guanine-(2)]
  IC₅₀ (µg/ml) (HSV-1): 0.163 µg/mL

## CC(O)C1C(CO)CC1n1cnc2c(=O)[nH]c(N)nc21 (single isomer, unassigned) [4-1, 9-[(1β,2α,3β)-2-(1-hydroxyethyl)-3-hydroxymethyl-1-cyclobutyl]guanine-(1)]
  IC₅₀ (µg/ml) (HSV-1): 45.2 µg/mL
